Experimental findings from US9993562B2, “Metallic gold cluster molecules as therapeutic agents for arthritic animals” (priority 2016, dated 2018) are described below.

Assay type in all cases: in vivo, DBA/1 male mice
Experiment [1] can be described thus: Effect of treatment on body weight of type II collagen immunized mice. As to conditions: mean ± sd. The procedure: DBA/1 male mice weighted 20-22 grams were purchased from Hua-Fu-Kang Biotechnology Limited, Beijing, China. Type II collagen and Complete Freund's Adjuvant were purchased from Chondrex Inc., Redmond, Wash., USA. […] Gold25(peptide)9 cluster molecules were prepared according to Example 1.
(§1) Type II collagen was dissolved in 0.1 mM acetic acid solution and was emulsified with equal volume of Complete Freund's Adjuvant to make a 1.0 mg/ml Type II collagen emulsion. After one week of resting and environment adjustment, DBA/1 male mice were divided into groups, each group was consisted of 10 mice. Each animal was injected intradermally at the 2-3 cm base of the tail an emulsion of 100 μg Type II collagen. On day 21, a second booster dose of 100 μg Type II collagen emulsion was injected. Negative control group of mice are injected with equal amount of 0.9% Sodium Chloride solution.
(§2) On day 22, groups of mice were given different drugs once each day for 28 days (4 weeks) until day 49 (end of week 7). The groups of mice were examined for inflammation and status.

For experiment [2], the system named is Collagen induced arthritis in mice. Briefly: Visual inflammation scoring of paws (0-4 per limb, four limbs summed), collagen induced arthritis.
From the text: Collagen induced arthritis in mice has been the standard animal model for studying rheumatoid arthritis and other polyarthritis. DBA/1 male mice weighted 20-22 grams were purchased from Hua-Fu-Kang Biotechnology Limited, Beijing, China. Type II collagen and Complete Freund's Adjuvant were purchased from Chondrex Inc., Redmond, Wash., USA. Auranofin was purchased from Sigma, USA and Dexamethasone was purchased from Jin-Yao Amino Acid Company, Tianjing, China. Gold25(peptide)9 cluster molecules were prepared according to Example 1.
as §1, §2
The inflammation was assessed by means of a visual scoring method where mouse individual paws were graded from 0-4 as follows:
0 score: no redness and no swelling;
1 score: mild erythema at the toes;
2 scores: toe joints and paw swelling;
3 scores: swelling below ankle
4 scores: all ankle and paw swelling. • All four limbs of each mouse were examined and scored, and scores of all four limbs were added together for each mouse.

A further experiment deals with IL-1β. Description: Amount of IL-1β at the arthritic joints (FIG. 11). As for the experimental part: as §2
(§3) In reference to FIGS. 10 and 11, the amount of pro-inflammation cytokine factors IL-6 and IL-1β were measured at the arthritic joints of the variously treated mice groups.

Experiment [3] concerns Collagen induced arthritis in mice. Description: 3D CT scan of paw joints, bone density changes (FIG. 7). As to conditions: end of week 7. As for the experimental part: as §1, §2
The next experiment has as its system TNF. Briefly: Amount of TNF at the arthritic joints. As for the experimental part:
as §2
In reference to […], the amount of pro-inflammation cytokine TNF was measured at the arthritic joints of the variously treated mice groups. […] The observed significant differences in effectiveness between orally administering and intraperitoneally administering methods may result from the fact that the amount of gold can be more and directly up-taken through phagocytosis by the macrophage cells peritoneum. This effect is also largely consistent with the prior observation that gold25(peptide)9 cluster molecules are capable of induce apoptosis in various cells, and its binding ability of cysteine-rich pro-inflammation cytokines helps with its anti-inflammation effect.

The subject of the next experiment is IL-6. Description: Amount of IL-6 at the arthritic joints (FIG. 10). The procedure: as §2, §3
In experiment [4] the test system is Collagen induced arthritis in mice. Description: Hematoxylin and eosin histology of hind limb joint sections (FIG. 8). As to conditions: H&E. As for the experimental part: as §1, §2
To evaluate the soft tissue damages around the joint area, the joint tissues of the hind limbs of each mouse groups were then fixed, embedded, sectioned into slides and hematoxylin and eosin stained to examine the histology and histopathology changes at the joints.

Experiment [5] shares this test system. Briefly: Pictures of hind limb swelling (FIG. 6), collagen induced arthritis. As to conditions: end of 7 weeks of the experiment. As for the experimental part:
as §1, §2

No end group written: not given here.

Turning to `C[C@@H]1C[C@H]2[C@@H]3CCC4=CC(=O)C=C[C@]4(C)[C@@]3(F)[C@@H](O)C[C@]2(C)[C@@]1(O)C(=O)CO` [DEX, Dexamethasone, reference compound], the “Mice Body Weight” value in experiment [1] (2 wk (before dosing), group i.g. 0.5 mg/kg) was determined as 23.20 ± 1.06 g; in experiment [1] (3 wk (before dosing), group i.g. 0.5 mg/kg) it was 23.50 ± 1.02 g. Further, the “Inflammation visual score (sum of four limbs, each 0-4)” value (from here on “Inflammation visual score”) in experiment [2] (35 d, i.g. 0.5 mg/kg once daily from day 22) is 0.22 ± 0.44; in experiment [2] (38 d, i.g. 0.5 mg/kg once daily from day 22), 0.33 ± 0.71; in experiment [2] (42 d, i.g. 0.5 mg/kg once daily from day 22), 1.22 ± 1.30; in experiment [2] (45 d, i.g. 0.5 mg/kg once daily from day 22) it was 1.33 ± 1.00; in experiment [2] (49 d, i.g. 0.5 mg/kg once daily from day 22) it was 1.22 ± 0.97.

As to “Au25 (peptide)9: metallic 25 gold atom cluster binding 9 peptides of SEQ ID NO: 1 Cys-Cys-Tyr-Gly-Gly-Pro-Lys-Lys-Lys-Arg-Lys-Pro-Gly (CCYGGPKKKRKPG; cysteine pairing not given here; also: 9 peptides bound to Au25 gold cluster)”, the “Amount of IL-1β at the arthritic joints” value was “reduced these two cytokines to the similar level as that of Dex” in the experiment with IL-1β (group 4, oral 50 mg/kg daily) and “reduced these two cytokines to the similar level as that of Dex” in the experiment on IL-1β (group 5, i.p. 5 mg/kg daily). In addition, in experiment [3] (i.p. 5 mg/kg daily), the “Bone density, deformation and osteolysis of paw joints, 3D CT” value is “significant improvement on the bone density comparing the non-treated arthritis mice, and no obvious osteolysis and only slight bone deformation”. Besides, the “Bone deformation and osteolysis of paw joints, 3D CT” value in experiment [3] (oral 50 mg/kg daily) is “still developed bone deformation and osteolysis”. The “Amount of TNF at the arthritic joints” value in the experiment with TNF (group 4, oral 50 mg/kg daily) is listed as “also reduced the amount of TNF”; in the experiment on TNF (group 5, i.p. 5 mg/kg daily), “dramatically reduced the TNF generation”. Besides, the “Mice Body Weight” value came to 21.60 ± 1.31 g in experiment [1] (0 w (before dosing, which starts day 22), group i.g. 50 mg/kg); 22 ± 1.27 g in experiment [1] (0 w (before dosing, which starts day 22), group i.p. 5 mg/kg); 23.05 ± 1.04 g in experiment [1] (1 wk (before dosing), group i.g. 50 mg/kg); 23.25 ± 1.21 g in experiment [1] (1 wk (before dosing), group i.p. 5 mg/kg); 23.40 ± 1.33 g in experiment [1] (2 wk (before dosing), group i.g. 50 mg/kg); 24.13 ± 0.99 g in experiment [1] (2 wk (before dosing), group i.p. 5 mg/kg). Moreover, the “Mice Body Weight” value in experiment [1] (3 wk (before dosing), group i.g. 50 mg/kg) worked out at 24.10 ± 1.50 g; in experiment [1] (3 wk (before dosing), group i.p. 5 mg/kg) it was 24.00 ± 0.85 g; in experiment [1] (4 wk, i.g. 50 mg/kg once daily from day 22), 22.66 ± 1.64 g; in experiment [1] (4 wk, i.p. 5 mg/kg once daily from day 22), 23.30 ± 0.84 g; in experiment [1] (5 wk, i.g. 50 mg/kg once daily from day 22) it was 22.35 ± 1.73 g; in experiment [1] (5 wk, i.p. 5 mg/kg once daily from day 22), 23.01 ± 0.70 g. In addition, the “Mice Body Weight” value in experiment [1] (6 wk, i.g. 50 mg/kg once daily from day 22) came out at 23.23 ± 1.71 g; in experiment [1] (6 wk, i.p. 5 mg/kg once daily from day 22) it was 22.63 ± 1.71 g; in experiment [1] (7 wk, i.g. 50 mg/kg once daily from day 22) it was 23.43 ± 1.47 g; in experiment [1] (7 wk, i.p. 5 mg/kg once daily from day 22), 22.47 ± 1.43 g. Further, the “Inflammation visual score” value in experiment [2] (35 d, i.g. 50 mg/kg once daily from day 22) came to 6.13 ± 3.09; in experiment [2] (35 d, i.p. 5 mg/kg once daily from day 22), 8.00 ± 2.78; in experiment [2] (38 d, i.g. 50 mg/kg once daily from day 22) it was 7.00 ± 3.07; in experiment [2] (38 d, i.p. 5 mg/kg once daily from day 22), 7.77 ± 4.49; in experiment [2] (42 d, i.g. 50 mg/kg once daily from day 22), 8.88 ± 3.04; in experiment [2] (42 d, i.p. 5 mg/kg once daily from day 22), 7.00 ± 3.20. For the same molecule, the “Inflammation visual score” value in experiment [2] (45 d, i.g. 50 mg/kg once daily from day 22) came out at 8.88 ± 3.52; in experiment [2] (45 d, i.p. 5 mg/kg once daily from day 22), 6.38 ± 2.33; in experiment [2] (49 d, i.g. 50 mg/kg once daily from day 22), 9.13 ± 0.48; in experiment [2] (49 d, i.p. 5 mg/kg once daily from day 22) it was 5.88 ± 3.40. For the same molecule, the “Swelling and joint deformity (in words)” value in experiment [2] (i.p. 5 mg/kg body weight, 3′ week of treatment) is on record as “significantly improved”. Besides, the “Swelling scores (in words)” value in experiment [2] (oral 50 mg/kg body weight, by the end of 4 weeks of treatment) was “better scores than Auranofin, but still developed comparable inflammation”. For the same molecule, the “Amount of IL-6 at the arthritic joints” value in the experiment on IL-6 (group 4, oral 50 mg/kg daily) is recorded as “reduced these two cytokines to the similar level as that of Dex”; in the experiment with IL-6 (group 5, i.p. 5 mg/kg daily), “reduced these two cytokines to the similar level as that of Dex”. The “Joint histopathology (bone erosion, soft tissue damage, synovial macrophage infiltration)” value is “the bone erosion is significantly less and no apparent number of synovial macrophage cells infiltration” in experiment [4] (i.p. 5 mg/kg daily); “reduced soft tissue damages and less macrophage infiltration” in experiment [4] (oral 50 mg/kg daily). In addition, the “Hind limb swelling in pictures (FIG. 6)” value in experiment [5] (i.p. 5 mg/kg daily) was “obvious reduced swelling and improvement in deformation”; in experiment [5] (oral 50 mg/kg daily), “still obvious swelling and slightly better condition”.
